Test results published in ChEMBL document CHEMBL4229543, “Squaramides as novel class I and IIB histone deacetylase inhibitors for topical treatment of cutaneous t-cell lymphoma” (Bioorg Med Chem Lett, 2018).
In brackets after ≈: the same amount, converted by molar mass.

Key:
[1] = target: T1, NAD-dependent protein deacetylase sirtuin-1 (Homo sapiens, UniProt Q96EB6); assay: Inhibition of human recombinant SIRT1 using fluorogenic HDAC substrate after 20 mins by fluorimetrc method
T1 sequence (Q96EB6 whole entry): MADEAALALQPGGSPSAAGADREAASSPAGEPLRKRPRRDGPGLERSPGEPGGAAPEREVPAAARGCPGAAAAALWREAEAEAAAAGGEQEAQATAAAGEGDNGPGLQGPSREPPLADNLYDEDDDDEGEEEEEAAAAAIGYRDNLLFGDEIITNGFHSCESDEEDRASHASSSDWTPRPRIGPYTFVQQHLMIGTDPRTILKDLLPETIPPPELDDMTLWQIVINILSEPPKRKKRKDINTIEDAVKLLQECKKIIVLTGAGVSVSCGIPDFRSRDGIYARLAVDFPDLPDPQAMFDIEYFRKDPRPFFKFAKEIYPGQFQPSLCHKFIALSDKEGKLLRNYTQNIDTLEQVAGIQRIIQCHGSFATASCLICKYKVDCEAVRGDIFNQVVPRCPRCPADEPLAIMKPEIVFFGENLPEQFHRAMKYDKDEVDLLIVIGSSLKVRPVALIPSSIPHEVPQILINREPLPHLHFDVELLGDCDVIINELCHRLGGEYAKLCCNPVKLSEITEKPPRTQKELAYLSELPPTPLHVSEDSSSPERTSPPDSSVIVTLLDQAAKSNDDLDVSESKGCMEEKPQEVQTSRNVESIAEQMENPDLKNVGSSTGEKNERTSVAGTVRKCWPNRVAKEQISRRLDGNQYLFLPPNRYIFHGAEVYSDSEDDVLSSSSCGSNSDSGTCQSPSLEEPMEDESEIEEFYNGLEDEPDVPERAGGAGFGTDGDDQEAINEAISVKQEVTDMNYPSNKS

[2] = Clearance in human hepatocytes assessed per million cells at 1 uM after 5 to 90 mins by LC-MS/MS analysis; type: ADME, cell-based, Hepatocyte; conditions: read-out: CLH
[3] = target: T2, NAD-dependent protein deacetylase sirtuin-7 (Homo sapiens, UniProt Q9NRC8); assay: Inhibition of SIRT7 (unknown origin)
T2 sequence (Q9NRC8 whole entry): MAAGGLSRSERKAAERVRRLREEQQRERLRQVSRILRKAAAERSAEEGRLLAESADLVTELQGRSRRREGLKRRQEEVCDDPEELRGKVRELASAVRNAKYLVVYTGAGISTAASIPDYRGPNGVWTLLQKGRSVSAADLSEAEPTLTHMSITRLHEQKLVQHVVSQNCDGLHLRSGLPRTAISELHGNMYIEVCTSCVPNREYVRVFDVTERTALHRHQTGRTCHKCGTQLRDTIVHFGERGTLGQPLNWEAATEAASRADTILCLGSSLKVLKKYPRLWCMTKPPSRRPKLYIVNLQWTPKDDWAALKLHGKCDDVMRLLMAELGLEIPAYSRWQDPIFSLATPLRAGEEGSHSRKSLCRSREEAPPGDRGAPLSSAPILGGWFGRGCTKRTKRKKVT

[4] = target: T3, NAD-dependent protein deacetylase sirtuin-2 (Homo sapiens, UniProt Q8IXJ6); assay: Inhibition of human recombinant SIRT2 using fluoro-lysine sirtuin 2 deacetylase substrate after 60 mins by fluorimetrc method
T3 sequence (Q8IXJ6 whole entry): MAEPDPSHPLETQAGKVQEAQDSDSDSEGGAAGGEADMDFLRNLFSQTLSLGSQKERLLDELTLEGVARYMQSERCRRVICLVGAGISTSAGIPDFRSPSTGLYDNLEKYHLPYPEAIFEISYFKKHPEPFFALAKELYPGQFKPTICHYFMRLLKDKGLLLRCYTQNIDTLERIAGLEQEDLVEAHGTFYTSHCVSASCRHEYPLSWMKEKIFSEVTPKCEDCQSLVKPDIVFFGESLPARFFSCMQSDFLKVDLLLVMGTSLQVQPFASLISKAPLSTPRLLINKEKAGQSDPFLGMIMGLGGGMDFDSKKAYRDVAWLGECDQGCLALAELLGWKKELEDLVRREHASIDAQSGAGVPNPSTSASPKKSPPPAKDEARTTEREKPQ

[5] = target: T4, NAD-dependent protein deacetylase sirtuin-3, mitochondrial (Homo sapiens, UniProt Q9NTG7); assay: Inhibition of human recombinant SIRT3 using fluoro-lysine sirtuin 2 deacetylase substrate after 45 mins by fluorimetrc method
T4 sequence (Q9NTG7 whole entry): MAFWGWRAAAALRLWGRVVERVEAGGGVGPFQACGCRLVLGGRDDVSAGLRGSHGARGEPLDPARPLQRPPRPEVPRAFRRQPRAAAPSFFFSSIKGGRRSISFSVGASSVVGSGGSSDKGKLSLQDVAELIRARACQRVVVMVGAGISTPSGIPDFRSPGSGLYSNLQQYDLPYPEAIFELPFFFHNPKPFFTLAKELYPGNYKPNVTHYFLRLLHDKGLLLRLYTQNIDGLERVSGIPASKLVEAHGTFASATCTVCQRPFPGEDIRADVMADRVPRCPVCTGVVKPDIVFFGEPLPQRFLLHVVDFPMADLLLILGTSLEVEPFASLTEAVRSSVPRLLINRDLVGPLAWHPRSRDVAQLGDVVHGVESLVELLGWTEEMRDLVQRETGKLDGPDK

[6] = Solubility in pH 7.4 phosphate buffer solution at 100 uM after 24 hrs by HPLC method; type: physicochemical
[7] = Solubility in PG/EtOH (96%) at 30 mg/mL after 24 hrs by UV-spectrometric method; type: physicochemical; conditions: PG/EtOH (96%)
HuT78 = assay: Pro-apoptotic activity in human HUT78 cells after 18 hrs by caspase-Glo 3/7 assay; type: functional, cell-based; conditions: HuT78, 18 h
[8] = target: T5, Polyamine deacetylase HDAC10 (Homo sapiens, UniProt Q969S8); assay: Inhibition of human recombinant HDAC10 using fluorogenic HDAC substrate after 45 mins by fluorimetrc method
T5 sequence (Q969S8 whole entry): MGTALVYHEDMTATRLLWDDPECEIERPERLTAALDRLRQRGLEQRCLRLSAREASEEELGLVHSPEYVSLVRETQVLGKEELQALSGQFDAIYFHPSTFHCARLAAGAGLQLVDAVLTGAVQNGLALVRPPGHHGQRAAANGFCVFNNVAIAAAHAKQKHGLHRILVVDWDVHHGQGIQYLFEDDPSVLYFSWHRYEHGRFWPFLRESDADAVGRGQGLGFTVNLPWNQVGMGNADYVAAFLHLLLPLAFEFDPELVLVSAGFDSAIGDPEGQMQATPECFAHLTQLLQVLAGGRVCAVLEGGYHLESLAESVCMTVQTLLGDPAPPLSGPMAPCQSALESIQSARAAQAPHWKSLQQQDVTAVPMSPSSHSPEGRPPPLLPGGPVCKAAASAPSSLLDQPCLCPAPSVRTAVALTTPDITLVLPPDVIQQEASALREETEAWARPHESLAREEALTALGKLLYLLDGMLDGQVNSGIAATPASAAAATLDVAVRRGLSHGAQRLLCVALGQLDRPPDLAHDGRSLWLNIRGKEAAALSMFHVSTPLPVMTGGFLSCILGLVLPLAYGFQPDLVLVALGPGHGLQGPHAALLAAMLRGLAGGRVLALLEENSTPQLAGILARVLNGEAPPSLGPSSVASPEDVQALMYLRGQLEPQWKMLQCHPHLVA

Histone deacetylase 9 = Histone deacetylase 9 (Homo sapiens, UniProt Q9UKV0); assay: Inhibition of human recombinant HDAC9 using fluorogenic HDAC substrate class 2a after 30 mins by fluorimetrc method
Histone deacetylase 9, sequence (Q9UKV0 whole entry): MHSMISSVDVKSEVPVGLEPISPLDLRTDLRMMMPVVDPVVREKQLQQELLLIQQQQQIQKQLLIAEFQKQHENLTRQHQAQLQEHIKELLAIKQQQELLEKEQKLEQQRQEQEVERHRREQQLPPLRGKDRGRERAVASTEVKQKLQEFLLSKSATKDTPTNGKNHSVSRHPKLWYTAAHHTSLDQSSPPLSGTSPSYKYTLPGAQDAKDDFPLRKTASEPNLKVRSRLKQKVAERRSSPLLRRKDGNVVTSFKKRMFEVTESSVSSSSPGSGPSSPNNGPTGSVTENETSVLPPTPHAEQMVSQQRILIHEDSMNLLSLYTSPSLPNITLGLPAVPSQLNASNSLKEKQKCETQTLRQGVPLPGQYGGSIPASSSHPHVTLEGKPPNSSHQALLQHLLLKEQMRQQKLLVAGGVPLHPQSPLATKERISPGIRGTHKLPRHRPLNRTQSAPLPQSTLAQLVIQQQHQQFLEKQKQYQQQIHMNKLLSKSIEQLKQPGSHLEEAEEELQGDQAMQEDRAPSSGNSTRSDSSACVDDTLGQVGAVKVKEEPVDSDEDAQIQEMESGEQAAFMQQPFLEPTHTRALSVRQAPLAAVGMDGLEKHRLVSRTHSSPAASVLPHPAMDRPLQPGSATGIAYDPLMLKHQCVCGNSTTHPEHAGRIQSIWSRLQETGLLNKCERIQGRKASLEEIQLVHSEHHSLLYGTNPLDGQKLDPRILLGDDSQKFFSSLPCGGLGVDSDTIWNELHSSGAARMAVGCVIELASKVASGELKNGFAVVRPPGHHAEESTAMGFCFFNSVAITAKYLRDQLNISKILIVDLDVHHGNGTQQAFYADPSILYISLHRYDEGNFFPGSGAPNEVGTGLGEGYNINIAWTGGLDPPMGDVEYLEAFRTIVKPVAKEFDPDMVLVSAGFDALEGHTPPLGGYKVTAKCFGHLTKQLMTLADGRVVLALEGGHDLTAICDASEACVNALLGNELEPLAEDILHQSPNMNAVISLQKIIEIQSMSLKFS

Histone deacetylase 5 = Histone deacetylase 5 (Homo sapiens, UniProt Q9UQL6); assay: Inhibition of human recombinant HDAC5 using fluorogenic HDAC substrate class 2a after 30 mins by fluorimetrc method
Histone deacetylase 5, sequence (Q9UQL6 whole entry): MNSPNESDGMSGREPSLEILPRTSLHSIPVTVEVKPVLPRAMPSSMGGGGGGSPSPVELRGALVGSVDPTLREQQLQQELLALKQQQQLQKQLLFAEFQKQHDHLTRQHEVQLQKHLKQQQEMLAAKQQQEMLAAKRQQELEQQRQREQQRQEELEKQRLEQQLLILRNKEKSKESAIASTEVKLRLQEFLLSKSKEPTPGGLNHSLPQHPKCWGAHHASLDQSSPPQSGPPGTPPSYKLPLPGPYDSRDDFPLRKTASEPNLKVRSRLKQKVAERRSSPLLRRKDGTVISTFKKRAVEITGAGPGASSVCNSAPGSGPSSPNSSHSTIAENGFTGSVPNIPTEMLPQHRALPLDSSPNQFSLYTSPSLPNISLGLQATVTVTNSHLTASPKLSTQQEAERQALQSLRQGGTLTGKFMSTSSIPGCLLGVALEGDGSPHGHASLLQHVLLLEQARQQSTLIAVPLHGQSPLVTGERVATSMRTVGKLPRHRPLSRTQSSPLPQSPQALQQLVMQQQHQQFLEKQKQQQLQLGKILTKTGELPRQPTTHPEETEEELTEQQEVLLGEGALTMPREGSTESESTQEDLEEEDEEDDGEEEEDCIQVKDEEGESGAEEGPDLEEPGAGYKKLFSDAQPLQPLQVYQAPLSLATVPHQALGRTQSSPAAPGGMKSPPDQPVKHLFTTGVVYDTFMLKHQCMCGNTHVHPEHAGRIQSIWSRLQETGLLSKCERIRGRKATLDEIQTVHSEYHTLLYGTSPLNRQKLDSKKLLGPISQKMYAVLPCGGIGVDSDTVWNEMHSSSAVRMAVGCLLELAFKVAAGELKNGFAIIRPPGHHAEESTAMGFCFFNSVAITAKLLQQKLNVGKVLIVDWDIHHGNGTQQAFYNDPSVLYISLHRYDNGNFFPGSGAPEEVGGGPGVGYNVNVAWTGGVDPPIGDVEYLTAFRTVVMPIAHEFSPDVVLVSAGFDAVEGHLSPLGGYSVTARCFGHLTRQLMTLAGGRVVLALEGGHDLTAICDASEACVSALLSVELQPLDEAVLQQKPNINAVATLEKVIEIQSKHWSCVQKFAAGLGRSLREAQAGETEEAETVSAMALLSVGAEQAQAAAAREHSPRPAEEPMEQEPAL

Row | SMILES | Ki [1] | hepatocyte CLint at 1 µM [2] | Ki [3] | Ki [4] | Ki [5] | solubility at 24 h, 100 µM ([6]; phosphate buffer, pH 7.4) | solubility at 24 h [7] | EC50 (HuT78) | solubility ([6]; buffer, pH 7.4, 24 h, 100 µM) | Ki [8] | Ki (Histone deacetylase 9) | Ki (Histone deacetylase 5)
1 | Cc1[nH]c2ccccc2c1CCNCc1ccc(/C=C/C(=O)NO)cc1 [PANOBINOSTAT] | > 10000 nM | 8.5 µL/min/1e6 cells | > 10000 nM | > 10000 nM | > 10000 nM | 0.069 mM (≈ 24.1 µg/mL) | 20 mM (≈ 6990 µg/mL) | 4.3 nM | – | – | – | –
2 | Cn1cc(CNCC2CCN(c3ncc(C(=O)NO)cn3)CC2)c2ccccc21 [QUISINOSTAT] | > 10000 nM | 9.8 µL/min/1e6 cells | > 10000 nM | > 10000 nM | > 10000 nM | – | 9.1 mM (≈ 3590 µg/mL) | 6.5 nM | > 0.097 mM | 4.4 nM | 5.3 nM | 4.3 nM
